Test results from US20230321100A1, “CD73 INHIBITOR AND APPLICATION THEREOF IN MEDICINE” (BETTA PHARMACEUTICALS CO., LTD, priority 2020, published 2023).
pIC50: −log10 of the molar value.

molecular target: T1, CD73 (Calu-6 cells) (Homo sapiens, UniProt P21589); assay: Enzymatic activity detection at the cellular level (Calu-6 cells, AMP substrate, Cell-titer Glo luminescence); format: cell-based; details: enzymatic IC50 at the Calu-6 cell level, 30 min pre-incubation, 120 min at 37° C.
T1 construct: endogenous in cells; host or cells: Calu-6 cells
T1 sequence (P21589 27-549): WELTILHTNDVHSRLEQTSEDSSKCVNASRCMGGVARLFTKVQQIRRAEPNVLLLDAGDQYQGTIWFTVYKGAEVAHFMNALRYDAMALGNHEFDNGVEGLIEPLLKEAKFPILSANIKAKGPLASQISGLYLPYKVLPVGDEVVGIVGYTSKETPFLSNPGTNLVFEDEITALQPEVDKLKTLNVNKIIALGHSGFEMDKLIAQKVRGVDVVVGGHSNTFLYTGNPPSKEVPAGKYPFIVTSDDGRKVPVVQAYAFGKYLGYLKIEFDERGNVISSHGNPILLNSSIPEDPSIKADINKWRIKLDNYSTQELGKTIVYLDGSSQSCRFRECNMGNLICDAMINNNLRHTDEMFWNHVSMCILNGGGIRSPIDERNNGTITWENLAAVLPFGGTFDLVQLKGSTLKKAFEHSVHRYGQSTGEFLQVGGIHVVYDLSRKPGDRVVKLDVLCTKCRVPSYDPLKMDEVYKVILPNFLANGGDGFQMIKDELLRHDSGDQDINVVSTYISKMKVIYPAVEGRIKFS
Method: The Calu-6 cells were digested and re-suspended using TM buffer (25 mM Tris, 5 mM MgCl2, pH 7.5). Calu-6 cell suspension was seeded into 96 well cell culture plate, and the number of cells per well was 2.5×10^4, adding volume of 100 μL/well. Compound solution with gradient concentration was prepared by TM buffer, and 50 μL DMSO solution with different concentration was added into each pore cell. […] Pre-incubated in a shaker at 37° C. for 30 min. Each well was added with 50 μL 800 μM AMP solution. The shaker at 37° C. for 120 min was continued to incubate, then the 96-well plates were centrifuged and 50 μL supernatant was transferred to the new 96-well plates. […] The luminescence value was read by the multi-function enzymatic reader and converted into the inhibition percentage: Inhibition percentage=(1−reading/Max)*100. The “maximum value” was DMSO control. IC50 values were obtained by curve fitting with GraphPad Prism software.

Compound	pIC50
O=c1[nH]cc(-c2cc(C3CC3c3ccc(F)cc3F)c(Cl)nn2)c(=O)[nH]1 (stereo not shown) [Compound 71]	8.34
COc1nnc(-c2c[nH]c(=O)[nH]c2=O)cc1[C@H]1C[C@@H]1C#Cc1cccnc1 [Compound 53]	8.62
C=C[C@H]1C[C@@H]1c1cc(-c2c[nH]c(=O)[nH]c2=O)nnc1C [Compound 7, 5-(6-methyl-5-((1S,2R)-2-vinylcyclopropyl)pyridazin-3-yl)pyrimidine-2,4(1H,3H)-dione]	7.68
N#Cc1ccc(C#C[C@H]2C[C@@H]2c2cc(-c3c[nH]c(=O)[nH]c3=O)nnc2Cl)nc1 [Compound 38, 6-(((1S,2S)-2-(3-chloro-6-(2,4-dioxo-1,2,3,4-tetrahydropyrimidin-5-yl)pyridazin-4-yl)cyclopropyl)ethynyl)nicotinonitrile]	8.43
Cc1nnc(-c2c[nH]c(=O)[nH]c2=O)cc1C1CC1Cc1ccccc1 (stereo not shown) [Compound D2, reference compound]	6.94
C=C(C)c1nnc(-c2c[nH]c(=O)[nH]c2=O)cc1[C@H]1C[C@@H]1CC [Compound 2, 5-(5-((1S,2S)-2-ethylcyclopropyl)-6-(prop-1-en-2-yl)pyridazin-3-yl)pyrimidine-2,4(1H,3H)-dione]	6.48
Cc1ccc(C2CC2c2cc(-c3c[nH]c(=O)[nH]c3=O)nnc2Cl)c(C)c1 (stereo not shown) [Compound 61]	7.72
N#Cc1nnc(-c2c[nH]c(=O)[nH]c2=O)cc1C1CC1c1ccc(Cl)cc1 (stereo not shown) [Compound 36, 4-(2-(4-chlorophenyl)cyclopropyl)-6-(2,4-dioxo-1,2,3,4-tetrahydropyrimidin-5-yl)pyridazine-3-carbonitrile]	8.72
O=c1[nH]cc(-c2cc([C@H]3C[C@@H]3C#Cc3ccccn3)c(Cl)nn2)c(=O)[nH]1 [Compound 43]	8.43
COc1nnc(-c2c[nH]c(=O)[nH]c2=O)cc1C1CC1c1ccc(F)cc1 (stereo not shown) [Compound 32, 5-(5-(2-(4-fluorophenyl)cyclopropyl)-6-methoxypyridazin-3-yl)pyrimidine-2,4(1H,3H)-dione]	8.27
O=c1[nH]cc(-c2cc(C3CC3c3ccc(Cl)cc3)c(Cl)nn2)c(=O)[nH]1 (stereo not shown) [Compound 28, 5-(6-chloro-5-(2-(4-chlorophenyl)cyclopropyl)pyridazin-3-yl)pyrimidine-2,4(1H,3H)-dione]	8.57
C/C=C/[C@H]1C[C@@H]1c1cc(-c2c[nH]c(=O)[nH]c2=O)nnc1C [Compound 8, 5-(6-methyl-5-((1S,2R)-2-((E)-prop-1-en-1-yl)cyclopropyl)pyridazin-3-yl)pyrimidine-2,4(1H,3H)-dione]	7.03
O=c1[nH]cc(-c2cc(C3CC3c3cccc(C(F)(F)F)c3)c(Cl)nn2)c(=O)[nH]1 (stereo not shown) [Compound 67]	8.14
C=CC1CC1c1cc(-c2c[nH]c(=O)[nH]c2=O)nnc1C (stereo not shown) [Compound 6, 5-(6-methyl-5-(2-vinylcyclopropyl)pyridazin-3-yl)pyrimidine-2,4(1H,3H)-dione]	7.29
COc1nnc(-c2c[nH]c(=O)[nH]c2=O)cc1C1CC1c1ccccc1 (stereo not shown) [Compound 31, 5-(6-methoxy-5-(2-phenylcyclopropyl)pyridazin-3-yl)pyrimidine-2,4(1H,3H)-dione]	8.38
Cc1nnc(-c2c[nH]c(=O)[nH]c2=O)cc1[C@H]1C[C@@H]1/C=C/C#N [Compound 10, (E)-3-((1R,2S)-2-(6-(2,4-dioxo-1,2,3,4-tetrahydropyrimidin-5-yl)-3-methylpyridazin-4-yl)cyclopropyl)acrylonitrile]	7.51
O=c1[nH]cc(-c2cc(C3CC3c3ccc(C(F)(F)F)c(F)c3)c(Cl)nn2)c(=O)[nH]1 (stereo not shown) [Compound 68]	7.82
O=c1[nH]cc(-c2cc([C@H]3C[C@@H]3c3ccccc3)cnn2)c(=O)[nH]1 [Compound 59, 5-(5-((1S,2S)-2-phenylcyclopropyl)pyridazin-3-yl)pyrimidine-2,4(1H,3H)-dione]	8.00
O=c1[nH]cc(-c2cc(C3CC3c3ccc(-c4ccccc4)cc3)c(Cl)nn2)c(=O)[nH]1 (stereo not shown) [Compound 76]	7.28
C=Cc1nnc(-c2c[nH]c(=O)[nH]c2=O)cc1[C@H]1C[C@@H]1CC [Compound 1, 5-(5-((1S,2S)-2-ethylcyclopropyl)-6-vinylpyridazin-3-yl)pyrimidine-2,4(1H,3H)-dione]	7.67
N#Cc1nnc(-c2c[nH]c(=O)[nH]c2=O)cc1[C@H]1C[C@@H]1C#Cc1ccccc1 [Compound 54]	8.09
O=c1[nH]cc(-c2cc(C3CC3c3ccccc3)c(Cl)nn2)c(=O)[nH]1 (stereo not shown) [Compound 23, 5-(6-chloro-5-(2-phenylcyclopropyl)pyridazin-3-yl)pyrimidine-2,4(1H,3H)-dione]	8.85

Compound	pIC50
O=c1[nH]cc(-c2cc([C@H]3C[C@@H]3C#Cc3ccc(F)cc3)c(Cl)nn2)c(=O)[nH]1 [Compound 48]	8.42
O=c1[nH]cc(-c2cc([C@@H]3C[C@H]3c3ccccc3)c(Cl)nn2)c(=O)[nH]1 [Compound D3, reference compound]	5.84
N#Cc1cccc(C#C[C@H]2C[C@@H]2c2cc(-c3c[nH]c(=O)[nH]c3=O)nnc2Cl)c1 [Compound 19, 3-(((1S,2S)-2-(3-chloro-6-(2,4-dioxo-1,2,3,4-tetrahydropyrimidin-5-yl)pyridazin-4-yl)cvclopropyl)ethynyl)benzonitrile]	8.52
Cc1ccc(C2CC2c2cc(-c3c[nH]c(=O)[nH]c3=O)nnc2Cl)cc1C (stereo not shown) [Compound 62]	8.25
N#Cc1nnc(-c2c[nH]c(=O)[nH]c2=O)cc1C1CC1c1ccc(F)cc1 (stereo not shown) [Compound 35, 6-(2,4-dioxo-1,2,3,4-tetrahydropyrimidin-5-yl)-4-(2-(4-fluorophenyl)cyclopropyl)pyridazine-3-carbonitrile]	8.96
Cc1nnc(-c2c[nH]c(=O)[nH]c2=O)cc1[C@H]1C[C@@H]1/C=C/C1CC1 [Compound 9, 5-(5-((1S,2R)-2-((E)-2-cyclopropylvinyl)cyclopropyl)-6-methylpyridazin-3-yl)pyrimidine-2,4(1H,3H)-dione]	6.70
O=c1[nH]cc(-c2cc(C3CC3c3cccc(F)c3F)c(Cl)nn2)c(=O)[nH]1 (stereo not shown) [Compound 70]	8.15
O=c1[nH]cc(-c2cc(C3CC3c3cc(F)c(F)cc3F)c(Cl)nn2)c(=O)[nH]1 (stereo not shown) [Compound 73]	8.23
O=c1[nH]cc(-c2cc([C@H]3C[C@@H]3C#Cc3ccccc3)c(Cl)nn2)c(=O)[nH]1 [Compound 18, 5-(6-chloro-5-((1S,2S)-2-(phenylethynyl)cyclopropyl)pyridazin-3-yl)pyrimidine-2,4(1H,3H)-dione]	8.25
COc1cccc(C2CC2c2cc(-c3c[nH]c(=O)[nH]c3=O)nnc2Cl)c1 (stereo not shown) [Compound 29, 5-(6-chloro-5-(2-(3-methoxyphenyl)cyclopropyl)pyridazin-3-yl)pyrimidine-2,4(1H,3H)-dione]	8.39
Cc1ccc(C2CC2c2cc(-c3c[nH]c(=O)[nH]c3=O)nnc2Cl)cc1F (stereo not shown) [Compound 65]	8.33
COc1nnc(-c2c[nH]c(=O)[nH]c2=O)cc1[C@H]1C[C@@H]1C#Cc1cccc(C#N)c1 [Compound 51]	8.37
C=C[C@H]1C[C@@H]1c1cc(-c2c[nH]c(=O)[nH]c2=O)nnc1OC [Compound 39, 5-(6-methoxy-S-((1S,2R)-2-vinylcyclopropyl)pyridazin-3-yl)pyrimidine-2,4(1H,3H)-dione]	8.60
Cc1nnc(-c2c[nH]c(=O)[nH]c2=O)cc1[C@H]1C[C@@H]1C#Cc1ccccc1 [Compound 41, 5-(6-methyl-5-((1S,2S)-2-(phenylethynyl)cyclopropyl)pyridazin-3-yl)pyrimidine-2,4(1H,3H)-dione]	8.12
O=c1[nH]cc(-c2cc([C@H]3C[C@@H]3C#Cc3ccncc3)c(Cl)nn2)c(=O)[nH]1 [Compound 37, 5-(6-chloro-5-((1S,2S)-2-(pyridin-4-ylethynyl)cyclopropyl)pyridazin-3-yl)pyrimidine-2,4(1H, 3H)-dione]	8.92
O=c1[nH]cc(-c2cc([C@H]3C[C@@H]3C#Cc3cccnc3)c(Cl)nn2)c(=O)[nH]1 [Compound 42]	8.36
Cc1cc(C)cc(C2CC2c2cc(-c3c[nH]c(=O)[nH]c3=O)nnc2Cl)c1 (stereo not shown) [Compound 63]	7.72
O=c1[nH]cc(-c2cc(C3CC3c3c(F)cc(F)cc3F)c(Cl)nn2)c(=O)[nH]1 (stereo not shown) [Compound 72]	8.31
COc1ccc(C#C[C@H]2C[C@@H]2c2cc(-c3c[nH]c(=O)[nH]c3=O)nnc2Cl)cc1 [Compound 44]	8.51
O=C(O)c1cccc(C2CC2c2cc(-c3c[nH]c(=O)[nH]c3=O)nnc2Cl)c1 (stereo not shown) [Compound 75]	7.49
COc1nnc(-c2c[nH]c(=O)[nH]c2=O)cc1C1CC1c1ccc(Cl)cc1 (stereo not shown) [Compound 33, 5-(5-(2-(4-chlorophenyl)cyclopropyl)-6-methoxypyridazin-3-yl)pyrimidine-2,4(1H,3H)-dione]	8.41
